Test results: patent EP2057185B1, “POLYMYXIN DERIVATIVES AND USES THEREOF” (Northern Antibiotics Oy, priority 2006, dated 2008)
Bridge positions count the residues as written; N and C are the ends. Square brackets hold non-standard residues; d marks the D form. Peptide text beside a SMILES is read from it. * marks the point of attachment. Octanoyl = CCCCCCCC(=O)*; Dab = NCC[C@H](N)C(=O)O; Abu = CC[C@H](N)C(=O)O

Tests used:
[1] = molecular target: brush-border membrane (BBM) of the renal cortex; assay: Inhibition of binding of radiolabelled gentamycin to brush-border membrane; set-up: species or system male albino rats; details: BBM vesicles, 20 µM [^3H] gentamycin, 60 min at 4°C, pH 7.5
Excerpt: The binding of the compounds according to this invention to isolated brush-border membrane (BBM) from the renal cortex can be measured indirectly by measuring their ability to inhibit the binding of radiolabelled gentamycin to BBM. Accordingly, the compounds according to this invention that have less affinity to BBM than for example polymyxin B inhibit the binding of radio-labelled gentamycin to a lesser degree than does polymyxin B.
BBM was isolated from the renal cortex of male albino rats by using the Mg^2+/EGTA precipitation technique as described by Nagai et al. (2006). The binding of gentamycin was measured, according to the method described by Nagai et al. (2006) by incubating BBM vesicles (20µl) in 10 mM HEPES (pH 7.5) with 300 mM mannitol in the presence of 20 µM [^3H] gentamycin (American Radiolabeled Chemicals, Inc. (St. Louis, MO, U.S.A.)) with or without the compound to be tested or a positive control. After an incubation of 60 min at 4°C, 1 ml of ice-cold buffer described above was added, and the mixture was filtered through a Millipore filter (0.45 µm; HAWP). The filter was washed with the buffer and the radioactivity remaining in the filter was measured by using a liquid scintillation counter. The IC50 values were determined as in Nagai et al. (2006) using the Hill equation.

[2] = test system: P. mirabilis ATCC29906; assay: MIC by E-strips on Mueller-Hinton agar with or without NAB7061 (4 µg/ml); assay type: cell-based, Proteus mirabilis
Protocol: (§1) MICs were determined by using E-strips (Biodisk Ltd., Solna, Sweden) according to the manufacturer's instructions.
(§2) The strains originated from ATCC (11 strains), CCUG (11 strains), and NCTC (The National Collection of Type Cultures, Colindale, U.K.; 2 strains). Eight strains (the F-strains) were purchased from Mobidiag Ltd., Helsinki, Finland.

[3] = test system: K. pneumoniae F144; assay: as above; assay type: cell-based, Klebsiella pneumoniae
Protocol: as §1, §2

[4] = test system: K. pneumoniae F145; assay: as above; assay type: cell-based, Klebsiella pneumoniae
Protocol: as §1, §2

[5] = test system: K. pneumoniae CCUG45421; assay: as above; assay type: cell-based, Klebsiella pneumoniae
Protocol: as §1, §2

[6] = test system: K. pneumoniae F136; assay: as above; assay type: cell-based, Klebsiella pneumoniae
Protocol: as §1, §2

[7] = test system: E. coli IH3080 (K1:O18); assay: Experimental E. coli peritonitis model in mice; assay type: in vivo; details: peritoneal fluid; 5 mg/kg body weight subcutaneous at 1 h; […] after the treatment
Protocol: A suspension of E. coli IH3080 (K1:O18) in saline (0.9% NaCl) was prepared from an overnight culture on a blood agar plate (Statens Serum Institut, Copenhagen, Denmark). All mice (female NMR1 from Harlan Scandinavia, Aller⌀d, Denmark; weight, 25-30 g) were inoculated intraperitoneally with 0.5 ml of the suspension containing 0.96 x 10^6 CFU per ml in the lateral lower quadrant of the abdomen. At 1 h, the CFU count was determined from three mice and the remaining mice (four mice per group) were treated with a subcutaneous injection of 0.2 ml of erythromycin solution in saline (corresponding to 5 mg/kg body weight) or NAB7061 solution in saline (corresponding to 5 mg/kg body weight), or both erythromycin and NAB7061 (corresponding to 5 mg/kg body weight of both drugs; given at two separate sites). Control group received two 0.2 ml injections of saline. At 4.5 h postinfection, all mice were anaesthetized with CO2 and sacrificed. Sterile saline (2 ml) was injected intraperitoneally and the abdomen was gently massaged before it was opened and the fluid sampled. Appropriate dilutions of the fluid were plated on blood agar plates, the plates were incubated overnight, and the colonies were counted.

[8] = test system: Ac. baumannii ATCC19606; assay: MIC by E-strips on Mueller-Hinton agar with or without NAB7061 (4 µg/ml); assay type: cell-based, Acinetobacter baumannii
Protocol: as §1, §2

[9] = test system: Ac. baumannii F263; assay: as above; assay type: cell-based, Acinetobacter baumannii
Protocol: as §1, §2

[10] = test system: K. oxytoca ATCC 13182; assay: Growth inhibition around wells on LB agar plates; assay type: cell-based, Klebsiella oxytoca; details: growth inhibition area around well
Protocol: (§3) From an overnight-grown culture of IH3080 on LB agar, a suspension of approx. 10^8 cells/ml was prepared in 0.9% NaCl. Aliquots of this suspension were then pipetted on the agar plates and the plates were gently shaken to spread the suspension evenly on the entire surface of the plate. Thereafter, the unabsorbed part of the suspension was removed by using a Pasteur pipette. After the surface had dried, small wells (diameter, 2 mm) were drilled on the plates (five wells per plate) by using a sterile sharp-edged narrow metal tube, single-use pipette tip, and vacuum suction. Samples (4 µl and 10 µl) of the peptide solution in 0.9% NaCl (at concentrations of 1 µg/ml and 0.1 µg/ml) were then pipetted to the wells and the sample fluids were allowed to absorb. Controls included 0.9% NaCl solution without the compound to be tested. The plates were then incubated for 18 h at 37°C whereafter the diameters of growth inhibition zones around each well were measured; the diameter of the well itself was […]. Finally, the diameters were converted to surface areas of growth inhibition (in square mm).
(§4) The susceptibility of eleven Gram-negative bacterial strains (nine different species) to NAB734 and polymyxin B was compared by using the susceptibility determination method described in Example 2. […]

[11] = test system: S. marcescens ATCC8100; assay: Growth inhibition around wells on LB agar plates; assay type: cell-based, Serratia marcescens; details: growth inhibition area around well
Protocol: as §3, §4

Compound: CCCCCCCC(=O)N[C@H](C(=O)N[C@@H](CC)C(=O)N[C@H]1CCNC(=O)[C@H]([C@@H](C)O)NC(=O)[C@H](CCN)NC(=O)[C@H](CCN)NC(=O)[C@H](CC(C)C)NC(=O)[C@@H](Cc2ccccc2)NC(=O)[C@H](CCN)NC1=O)[C@@H](C)O [NAB 7061, OA-Thr-Abu-cy[Dab-Dab-DPhe-Leu-Dab-Dab-Thr-]] (Octanoyl-T[Abu][Dab][Dab][dF]L[Dab][Dab]T; lactam 3-C)
- IC50 [1]: 187 µM
- MIC (µg/ml) of rifampin in the presence of 4 µg/ml of NAB 7061 [2]: 1 to 6 µg/mL
- Sensitization factor to clarithromycin ([2]; 4 µg/ml of NAB 7061): <2
- Sensitization factor to rifampin ([2]; 4 µg/ml of NAB 7061): <2
- CFU counts (per ml) at 4.5 h postinfection [7]: 1.1 (± 0.6) x 10^6 per ml

Compound: Polymyxin B
- Antibacterial activity 4 µg ([10]; 4 µg): 79 square millimeters
- Antibacterial activity 10 µg ([10]; 10 µg): 104 square millimeters
- Antibacterial activity 4 µg ([11]; 4 µg): 0 square millimeters
- Antibacterial activity 10 µg ([11]; 10 µg): 0 square millimeters
